Reference: patent US12076315B2 (Clear Creek Bio, Inc., priority 2020, dated 2024)
“Also recorded” adds a separate entry of the source. Like-named read-outs stand apart in the source and are kept apart here.

Conditions: for Comments: stability of the polymorph: Table 3, solid polymorph of brequinar sodium salt on storage; for Time after which the polymorph converts to Pattern C / Stability of the polymorphic form under ambient conditions (temperature and humidity): sodium salt; for Stability of the polymorphic form under ambient conditions (temperature and humidity): unstable forms convert to Pattern C

In the case of `Cc1c(-c2ccc(-c3ccccc3F)cc2)nc2ccc(F)cc2c1C(=O)[O-].[Na+]` [Pattern G, 6-Flouro-2-(2′-fluoro-1,1′-biphenyl-4-yl)-3-methyl-4-quinolinecarboxylic acid sodium salt], the “Comments: stability of the polymorph” value is reported as 15.3%), unstable, convert, the “Time after which the polymorph converts to Pattern C” value (shortened to “Time”) (at ambient condition) is reported as “to Pattern C after 2 weeks” and the “Stability of the polymorphic form under ambient conditions (temperature and humidity)” value (from here on “Stability of the polymorphic form”) is reported as “unstable”.

For `Cc1c(-c2ccc(-c3ccccc3F)cc2)nc2ccc(F)cc2c1C(=O)[O-].[Na+]` [Pattern J, 6-Flouro-2-(2′-fluoro-1,1′-biphenyl-4-yl)-3-methyl-4-quinolinecarboxylic acid sodium salt], the “Comments: stability of the polymorph” value was “Unstable, convert to Pattern”, the “Time” value (closed cap storage) was “C after 2 weeks (closed cap” and the “Stability of the polymorphic form” value was “unstable”.

With `Cc1c(-c2ccc(-c3ccccc3F)cc2)nc2ccc(F)cc2c1C(=O)[O-].[Na+]` [Pattern E, 6-Flouro-2-(2′-fluoro-1,1′-biphenyl-4-yl)-3-methyl-4-quinolinecarboxylic acid sodium salt] the “Time” value (closed cap storage) was “Pattern C after 1 week” and the “Stability of the polymorphic form” value was “unstable”.

In the case of `Cc1c(-c2ccc(-c3ccccc3F)cc2)nc2ccc(F)cc2c1C(=O)[O-].[Na+]` [Pattern D, 6-Flouro-2-(2′-fluoro-1,1′-biphenyl-4-yl)-3-methyl-4-quinolinecarboxylic acid sodium salt], the “Time” value (at ambient condition) is reported as “C after 3 days at ambient” and the “Stability of the polymorphic form” value is reported as “unstable”.

With `Cc1c(-c2ccc(-c3ccccc3F)cc2)nc2ccc(F)cc2c1C(=O)[O-].[Na+]` [Pattern I, 6-Flouro-2-(2′-fluoro-1,1′-biphenyl-4-yl)-3-methyl-4-quinolinecarboxylic acid sodium salt] the “Comments: stability of the polymorph” value was “KF 7.3%, unstable,”, the “Time” value (at ambient condition) was 2 days at ambient condition and the “Stability of the polymorphic form” value was “unstable”.

For `Cc1c(-c2ccc(-c3ccccc3F)cc2)nc2ccc(F)cc2c1C(=O)[O-].[Na+]` [Pattern A, 6-Flouro-2-(2′-fluoro-1,1′-biphenyl-4-yl)-3-methyl-4-quinolinecarboxylic acid sodium salt], the “Stability of the polymorphic form” value was “metastable”.

With `Cc1c(-c2ccc(-c3ccccc3F)cc2)nc2ccc(F)cc2c1C(=O)[O-].[Na+]` [Pattern F, 6-Flouro-2-(2′-fluoro-1,1′-biphenyl-4-yl)-3-methyl-4-quinolinecarboxylic acid sodium salt] the “Time” value (closed cap storage) was “Pattern C after 1 week” and the “Stability of the polymorphic form” value was “unstable”.

In the case of `Cc1c(-c2ccc(-c3ccccc3F)cc2)nc2ccc(F)cc2c1C(=O)[O-].[Na+]` [Pattern B, 6-Flouro-2-(2′-fluoro-1,1′-biphenyl-4-yl)-3-methyl-4-quinolinecarboxylic acid sodium salt], the “Comments: stability of the polymorph” value is reported as “hydrate KF 4.8% unstable,”, the “Time” value (at ambient condition) is reported as “convert to Pattern C after 4 days” and the “Stability of the polymorphic form” value is reported as “unstable”.

In the case of `Cc1c(-c2ccc(-c3ccccc3F)cc2)nc2ccc(F)cc2c1C(=O)[O-].[Na+]` [Pattern C, 6-Flouro-2-(2′-fluoro-1,1′-biphenyl-4-yl)-3-methyl-4-quinolinecarboxylic acid sodium salt], the “Stability of the polymorphic form” value (listed as polymorphic form C) is reported as “stable; also recorded: most stable”.
